Results taken from PubChem BioAssay (NCI).
Several values for one entry are separate records, joined by “and”; a condition that tells them apart may be missing. Identical values can stand only once.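 Grown in 96-well plates, cells were treated for 48 hours with each compound at five concentrations. Insufficient inhibition: endpoint recorded as highest concentration tested. GI50 marks 50% less growth. TGI: concentration producing complete growth inhibition.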

What was measured:
Assay in all cases: NCI anticancer screen, dose series, 48 h
SNB-75 CNS = test system: SNB-75 CNS
HS 578T breast = test system: HS 578T breast
UACC-62 melanoma = test system: UACC-62 melanoma
OVCAR-8 ovarian = test system: OVCAR-8 ovarian
SN12C renal = test system: SN12C renal
MCF7 breast = test system: MCF7 breast
HL-60(TB) leukemia = test system: HL-60(TB) leukemia
SF-295 CNS = test system: SF-295 CNS
HCT-116 colon = test system: HCT-116 colon
KM12 colon = test system: KM12 colon
RPMI-8226 leukemia = test system: RPMI-8226 leukemia
BT-549 breast = test system: BT-549 breast
SNB-19 CNS = test system: SNB-19 CNS
SW-620 colon = test system: SW-620 colon
M14 melanoma = test system: M14 melanoma
NCI-H23 lung = test system: NCI-H23 lung
UACC-257 melanoma = test system: UACC-257 melanoma
SF-268 CNS = test system: SF-268 CNS
SK-MEL-5 melanoma = test system: SK-MEL-5 melanoma
SK-MEL-28 melanoma = test system: SK-MEL-28 melanoma
MOLT-4 leukemia = test system: MOLT-4 leukemia
SR leukemia = test system: SR leukemia
HOP-62 NSCLC = test system: HOP-62 NSCLC
U251 CNS = test system: U251 CNS
EKVX NSCLC = test system: EKVX NSCLC
HCC-2998 colon = test system: HCC-2998 colon
NCI-H522 lung = test system: NCI-H522 lung
HCT-15 colon = test system: HCT-15 colon
786-0 renal = test system: 786-0 renal
CAKI-1 renal = test system: CAKI-1 renal
ACHN renal = test system: ACHN renal
HT29 colon = test system: HT29 colon
PC-3 prostate = test system: PC-3 prostate
K-562 leukemia = test system: K-562 leukemia
MALME-3M melanoma = test system: MALME-3M melanoma
NCI-H460 lung = test system: NCI-H460 lung
A498 renal = test system: A498 renal
TK-10 renal = test system: TK-10 renal
OVCAR-5 ovarian = test system: OVCAR-5 ovarian
IGROV1 ovarian = test system: IGROV1 ovarian
LOX IMVI melanoma = test system: LOX IMVI melanoma
UO-31 renal = test system: UO-31 renal
SK-OV-3 ovarian = test system: SK-OV-3 ovarian
DU-145 prostate = test system: DU-145 prostate
COLO 205 colon = test system: COLO 205 colon
A549 NSCLC = test system: A549 NSCLC
HOP-92 NSCLC = test system: HOP-92 NSCLC
SK-MEL-2 melanoma = test system: SK-MEL-2 melanoma
OVCAR-4 ovarian = test system: OVCAR-4 ovarian
NCI-H226 lung = test system: NCI-H226 lung
NCI/ADR-RES ovarian = test system: NCI/ADR-RES ovarian
SF-539 CNS = test system: SF-539 CNS
MDA-MB-231 breast = test system: MDA-MB-231 breast
MDA-MB-435 = test system: MDA-MB-435
CCRF-CEM leukemia = test system: CCRF-CEM leukemia

COc1ccc(N(C)c2ncnc3occ(C)c23)cc1
GI50 (SNB-75 CNS): < 10 nM | TGI (SNB-75 CNS): > 52000 nM | GI50 (HS 578T breast): < 10 nM | TGI (HS 578T breast): < 10 nM | GI50 (UACC-62 melanoma): < 10 nM | TGI (UACC-62 melanoma): > 100000 nM | GI50 (OVCAR-8 ovarian): < 10 nM | TGI (OVCAR-8 ovarian): > 100000 nM | GI50 (SN12C renal): < 10 nM | TGI (SN12C renal): > 100000 nM | GI50 (MCF7 breast): < 10 nM | TGI (MCF7 breast): > 100000 nM | GI50 (HL-60(TB) leukemia): < 10 nM | TGI (HL-60(TB) leukemia): < 10 nM | GI50 (SF-295 CNS): < 10 nM | TGI (SF-295 CNS): > 100000 nM | GI50 (HCT-116 colon): < 10 nM | TGI (HCT-116 colon): 197 nM | GI50 (KM12 colon): < 10 nM | GI50 (RPMI-8226 leukemia): < 10 nM | TGI (RPMI-8226 leukemia): < 10 nM | GI50 (BT-549 breast): < 24.4 nM | TGI (BT-549 breast): > 62400 nM | GI50 (SNB-19 CNS): < 10 nM | TGI (SNB-19 CNS): > 100000 nM | GI50 (SW-620 colon): < 10 nM | TGI (SW-620 colon): > 100000 nM | GI50 (M14 melanoma): < 10 nM | TGI (M14 melanoma): > 100000 nM | GI50 (NCI-H23 lung): < 10 nM | TGI (NCI-H23 lung): > 100000 nM | GI50 (UACC-257 melanoma): 29600 nM | TGI (UACC-257 melanoma): > 100000 nM | GI50 (SF-268 CNS): 10.1 nM | TGI (SF-268 CNS): > 62300 nM | GI50 (SK-MEL-5 melanoma): < 10 nM | TGI (SK-MEL-5 melanoma): < 14.9 nM | GI50 (SK-MEL-28 melanoma): < 10 nM | TGI (SK-MEL-28 melanoma): > 100000 nM | GI50 (MOLT-4 leukemia): < 10 nM | TGI (MOLT-4 leukemia): 48.1 nM | GI50 (SR leukemia): < 10 nM | TGI (SR leukemia): 236 nM | TGI (HOP-62 NSCLC): > 100000 nM | GI50 (U251 CNS): < 10 nM | TGI (U251 CNS): 11900 nM | GI50 (EKVX NSCLC): < 10 nM | TGI (EKVX NSCLC): > 100000 nM | GI50 (HCC-2998 colon): < 10 nM | TGI (HCC-2998 colon): 46.3 nM | GI50 (NCI-H522 lung): < 10 nM | TGI (NCI-H522 lung): < 10 nM | GI50 (HCT-15 colon): < 10 nM | GI50 (786-0 renal): < 10 nM | TGI (786-0 renal): > 100000 nM | GI50 (CAKI-1 renal): < 10 nM | TGI (CAKI-1 renal): > 100000 nM | GI50 (ACHN renal): 19.3 nM | TGI (ACHN renal): > 100000 nM | GI50 (HT29 colon): < 10 nM | TGI (HT29 colon): 16300 nM | GI50 (PC-3 prostate): < 10 nM | TGI (PC-3 prostate): > 51800 nM | GI50 (K-562 leukemia): < 10 nM | GI50 (MALME-3M melanoma): 38700 nM | TGI (MALME-3M melanoma): > 100000 nM | GI50 (NCI-H460 lung): < 10 nM | GI50 (A498 renal): < 10 nM | TGI (A498 renal): < 10 nM | GI50 (TK-10 renal): 55600 nM | TGI (TK-10 renal): > 100000 nM | GI50 (OVCAR-5 ovarian): < 11.3 nM | TGI (OVCAR-5 ovarian): > 100000 nM | GI50 (IGROV1 ovarian): < 10 nM | TGI (IGROV1 ovarian): > 100000 nM | GI50 (LOX IMVI melanoma): < 10 nM | TGI (LOX IMVI melanoma): > 100000 nM | GI50 (UO-31 renal): < 10 nM | TGI (UO-31 renal): > 100000 nM | GI50 (SK-OV-3 ovarian): < 10 nM | TGI (SK-OV-3 ovarian): > 100000 nM | GI50 (DU-145 prostate): < 10 nM | TGI (DU-145 prostate): 20.8 nM | GI50 (COLO 205 colon): < 10 nM | TGI (COLO 205 colon): < 10.5 nM | GI50 (A549 NSCLC): < 10 nM | TGI (A549 NSCLC): > 100000 nM | GI50 (HOP-92 NSCLC): 62.5 nM | TGI (HOP-92 NSCLC): > 100000 nM | GI50 (SK-MEL-2 melanoma): < 10 nM | TGI (SK-MEL-2 melanoma): 58700 nM | GI50 (OVCAR-4 ovarian): < 31.1 nM | TGI (OVCAR-4 ovarian): > 100000 nM | GI50 (NCI-H226 lung): < 10 nM | TGI (NCI-H226 lung): 76.1 nM | GI50 (NCI/ADR-RES ovarian): < 10 nM | TGI (NCI/ADR-RES ovarian): > 100000 nM | GI50 (SF-539 CNS): < 10 nM | TGI (SF-539 CNS): < 10 nM

COC(=O)c1cc2c(cc1O)[C@@H](NC(C)=O)CCc1cc(OC)c(OC)c(OC)c1-2
TGI (HS 578T breast): 48.1 nM | GI50 (UACC-62 melanoma): 15.9 nM | TGI (UACC-62 melanoma): > 100000 nM | GI50 (OVCAR-8 ovarian): 40.4 nM | GI50 (SN12C renal): 40.8 nM | TGI (SN12C renal): > 100000 nM | TGI (MCF7 breast): > 100000 nM | GI50 (SF-295 CNS): < 10 nM | TGI (SF-295 CNS): > 100000 nM | GI50 (HCT-116 colon): 16.4 nM | GI50 (KM12 colon): < 10 nM | GI50 (RPMI-8226 leukemia): 52.4 nM | TGI (RPMI-8226 leukemia): > 100000 nM | GI50 (SNB-19 CNS): 35.5 nM | TGI (SNB-19 CNS): > 100000 nM | GI50 (SW-620 colon): 23.5 nM | TGI (SW-620 colon): > 100000 nM | GI50 (M14 melanoma): 29.3 nM | TGI (M14 melanoma): > 100000 nM | GI50 (NCI-H23 lung): 21.7 nM | TGI (NCI-H23 lung): 84.8 nM and 71.2 nM | GI50 (UACC-257 melanoma): 27.4 nM | TGI (UACC-257 melanoma): > 100000 nM | GI50 (SF-268 CNS): 447 nM | TGI (SF-268 CNS): > 100000 nM | GI50 (SK-MEL-28 melanoma): > 100000 nM | TGI (SK-MEL-28 melanoma): > 100000 nM | GI50 (MOLT-4 leukemia): 47.2 nM | TGI (MOLT-4 leukemia): 81800 nM | GI50 (SR leukemia): < 10 nM | TGI (SR leukemia): > 100000 nM | GI50 (U251 CNS): 40.2 nM | TGI (U251 CNS): 1170 nM | GI50 (MDA-MB-231 breast): 54.2 nM | TGI (MDA-MB-231 breast): > 100000 nM | GI50 (HCC-2998 colon): 35.5 nM | TGI (NCI-H522 lung): 190 nM | GI50 (HCT-15 colon): 22.6 nM | GI50 (786-0 renal): 41.6 nM | TGI (786-0 renal): > 100000 nM | GI50 (CAKI-1 renal): 21.4 nM | TGI (CAKI-1 renal): > 100000 nM | GI50 (ACHN renal): 45.9 nM | TGI (ACHN renal): > 100000 nM | GI50 (HT29 colon): 20.6 nM | TGI (HT29 colon): 201 nM and 55.4 nM | GI50 (PC-3 prostate): 15 nM | TGI (PC-3 prostate): > 100000 nM | GI50 (K-562 leukemia): 24.6 nM | TGI (K-562 leukemia): > 100000 nM | GI50 (MALME-3M melanoma): 29.9 nM | GI50 (NCI-H460 lung): 29.6 nM | TGI (NCI-H460 lung): > 100000 nM | GI50 (A498 renal): 42.2 nM | TGI (LOX IMVI melanoma): > 100000 nM | GI50 (UO-31 renal): 62.6 nM | TGI (UO-31 renal): > 100000 nM | GI50 (SK-OV-3 ovarian): 83.1 nM | TGI (SK-OV-3 ovarian): > 100000 nM | TGI (DU-145 prostate): > 100000 nM | GI50 (MDA-MB-435): < 10 nM | TGI (MDA-MB-435): 1230 nM | GI50 (COLO 205 colon): 23.6 nM | TGI (COLO 205 colon): 1560 nM and 1180 nM | GI50 (A549 NSCLC): 31.3 nM | TGI (A549 NSCLC): > 100000 nM | TGI (HOP-92 NSCLC): 8750 nM | GI50 (SK-MEL-2 melanoma): < 10 nM | TGI (SK-MEL-2 melanoma): 37.1 nM | GI50 (OVCAR-4 ovarian): 1060 nM | TGI (OVCAR-4 ovarian): > 100000 nM | GI50 (NCI-H226 lung): 30.9 nM | GI50 (CCRF-CEM leukemia): 39.8 nM | TGI (CCRF-CEM leukemia): > 100000 nM | GI50 (NCI/ADR-RES ovarian): 59.6 nM | TGI (SF-539 CNS): 76600 nM
